In US6069132A, “Phosphazole compounds” (priority 1997, dated 2000):
In brackets after ≈: the same amount, converted by molar mass.

Experiments:
[1] = tested on: HCMV (Town strain); test: HCMV plaque reduction (CPE) assay in MRC-5 cells; assay type: cell-based, human cytomegalovirus; conditions: Human betaherpesvirus 5, MRC5; Table 4; read-out: IC50 HCMV
Protocol: The adenine analog phosphazole (compound T70241) was assayed for antiviral activity using a HCMV plaque reduction assay, in accordance with known methods such as that described in U.S. Pat. No. 5,446,045.
(§1) Cell Culture. Vero (African Green Monkey kidney cells) and MRC-5 (diploid Human Embryonic Lung fibroblasts) cells were obtained from the American Type Culture Collection (ATCC) and were grown in minimal essential medium (MEM) with Earl's salts and glutamine (GIBCO BRL, Life Technologies, Inc.) with 10% heat inactivated fetal bovine serum (GIBCO BRL) and penicillin (100 μg/mL)/streptomycin (100 μg/mL).
CMV Cytopathic Effect (CPE) Assay. Assays were performed essentially as described by Lewis et al. (111), which report is incorporated herein by reference. MRC-5 cells (100,000 cells/well) were seeded in 24-well plates overnight. Medium was then removed and wells were rinsed once with 250 μL of 2% FCS-MEM before adding 40-50 pfu of HCMV (Town strain) to each well. After 2 hours of virus adsorption, the medium was removed and the cells were rinsed once with 2% FCS-MEM. Varying concentrations of the phosphazole compound in the culture medium (1 mL) was then added to appropriate wells and plates were incubated for 5-6 days at 37° C. in a humidified 5% CO2 atmosphere. Each concentration was tested in duplicate wells.
The extent of the plaque reduction was quantitated by removing the media and adding 200 μL of 0.1% crystal violet in 20% methanol to all wells. The crystal violet was then removed after 10 min staining at room temperature by rinsing in the sink with tap water and the plates dried overnight. The plaques were then counted using a Nikon inverted microscope.

[2] = tested on: IL-1β; test: Inhibition of IL-1β production in LPS-stimulated THP-1 cells (ELISA); assay type: cell-based, human; conditions: for IC50: Homo sapiens, Table 2, LPS-stimulated THP-1, 6 h post-stimulation, read-out: IC50 IL-1β in THP-1 cells
Protocol: (§2) Cell line. THP-1 cells (human monocyte) were maintained in RPMI 1640 medium containing 25 mM Hepes buffer, 2 mM L-glutamine, 50 units of penicillin per mL, 50 μg of streptomycin sulfate per mL, and 10% heat-inactivated fetal bovine serum (FBS) in a humidified incubator containing 5% CO2. The cells were split 1:4 weekly as recommended by the American Type Culture Collection (ATCC).
TNFα assay. Varying concentrations of the test compound or control compound were added to THP-1 cells plated at a density of 1×10^6cells/mL in 600 μL of 10% RPMI in a 48 well plate. After one hour the cells were stimulated with 0.5 μg of lipopolysaccharide (LPS; Sigma, lot number 43H40491) per mL. Six hours post-stimulation supernatants were collected and assayed for TNFα or IL-1β production using a commercially available cytokine detection ELISA (Enzyme Linked Immunosorbent Assay) kit according to the suppliers instructions. A suitable assay kit may be obtained from Biosource, or R and D systems. A novel xanthine analog, HWA-3138, having the structure (as shown below) was used as the control compound (30) in this study to monitor the response of the THP-l cells. Xanthine analogs are known inhibitors of TNFα but not IL-1β. In the following experiments compound HWA-3138 was used as a positive control. [drawing 58] […]
THP-1 cells were cultured and IL-1β inhibition assays were conducted as described for TNFα in Example 46, except a commercially available IL-1β assay kit, obtained from R and D Systems, Minneapolis, Minn., was used instead of the TNFα kit.
With reference now to FIG. 8, for each concentration of T70241 tested, the membrane bound IL-1β was separated from the IL-1β found free in the culture medium at 6 hours post-LPS stimulation as described in Example 46 for TNFα, and the percent inhibition of each fraction was graphed.

[3] = Cytotoxicity on growing Vero cells (MTS); assay type: cell-based; conditions: african green monkey, Table 4, 50% inhibition of logphase growing cells, read-out: TC50 Growing Vero
Protocol: as §1
(§3) Cytotoxicity Analysis. The cytotoxicity of the compound was assayed using few the CellTiter 96™ Aqueous Non-Radioactive Cell Proliferation (MTS) Assay (Promega). Briefly, viable cell number was determined by trypan blue staining and cells (MRC-5 and Vero) were resuspended in minimal essential medium (MEM) supplemented with 10% FBS (GIBCO). Eighty microliters of cell suspension (1.7×10^4 cells/well) was dispensed onto a 96-well microtiter plates. At this time 20 μL of drug (or control) was added to appropriate wells. Each concentration was assayed in quadruplicate. The plates were incubated at 37° C. in a humidified 5% CO2 atmosphere for 4 days and MTS assay was performed according to the manufacturer's instructions. The average absorbence of the sample was graphed for each concentration and the data obtained was used to calculate TC50 (the concentration necessary to give one-half maximum growth) for each compound.

[4] = Cytotoxicity on growing MRC-5 cells (MTS); assay type: cell-based, human; conditions: human, mrc-5 cells; Table 4; 50% inhibition of logphase growing cells; read-out: TC50 Growing MRC-5
Protocol: as §1, §3

[5] = Cytotoxicity on static MRC-5 cells; assay type: cell-based; conditions: human, Table 4, 50% cell death (static cells), read-out: TC50 Static MRC-5
Protocol: as §1, §3

[6] = tested on: HSV-2; test: HSV-2 CPE assay in Vero cells; assay type: cell-based; conditions: Human alphaherpesvirus 2, Vero
[7] = Cytotoxicity on static Vero cells; assay type: cell-based; conditions: african green monkey, Table 4, 50% cell death (static cells), read-out: TC50 Static Vero
Protocol: as §1, §3

[8] = tested on: TNFα; test: Inhibition of TNFα production in LPS-stimulated THP-1 cells (ELISA); assay type: cell-based, human; conditions: for IC50: Homo sapiens, Table 2, LPS-stimulated THP-1, 6 h post-stimulation
Protocol: as §2
TNFα assay. Varying concentrations of the test compound or control compound were added to THP-1 cells plated at a density of 1×10^6cells/mL in 600 μL of 10% RPMI in a 48 well plate. After one hour the cells were stimulated with 0.5 μg of lipopolysaccharide (LPS; Sigma, lot number 43H40491) per mL. Six hours post-stimulation supernatants were collected and assayed for TNFα or IL-1β production using a commercially available cytokine detection ELISA (Enzyme Linked Immunosorbent Assay) kit according to the suppliers instructions. A suitable assay kit may be obtained from Biosource, or R and D systems. A novel xanthine analog, HWA-3138, having the structure (as shown below) was used as the control compound (30) in this study to monitor the response of the THP-l cells. Xanthine analogs are known inhibitors of TNFα but not IL-1β. In the following experiments compound HWA-3138 was used as a positive control. [drawing 58]
Time of Addition. Varying concentrations of test or control compounds were added to THP-1 cells (1×10^6 cells/mL) at different time points post-stimulation using 0.5 μg of LPS (Sigma, lot number 43H40491) per mL in 300 μL of 10% RPMI in a 48 well plate. Six hours post-stimulationsupernatants were collected and assayed for TNFα or IL-1β production using a Biosource cytokine detection ELISA (Enzyme Linked Immunosorbent Assay) kit according to the supplier's instructions.
The membrane bound TNFα was separated from the free TNFα in the culture medium at 6 hours post-LPS stimulation as follows: The corresponding cells were centrifuged at 3500 rpm (~1,000×g) for 6 min. The supernatants were removed and the cell pellets were then resuspended in 200 μL of 0.25 mM Tris-HCl (pH 7.4). The cell associated TNFα was prepared by freezing the cell suspension in dry ice/ethanol and thawing at 37° C. three times with Vortexing in-between freeze-thaw cycles. Each cycle was 4-5 min apart.
To determine the long-term effects of phosphazole compound T70241 on TNFα production after a single treatment, THP-1 cells were pre-incubated with T70241, washed and resuspended in drug free medium. The xanthine analog HWA-3138 was used as a control.

[9] = tested on: HSV-1; test: HSV-1 CPE assay in Vero cells; assay type: cell-based; conditions: Human alphaherpesvirus 1, Vero
[10] = Cytotoxicity on growing THP-1 cells (MTS assay); assay type: cell-based, human; conditions: human, thp-1 cells; Table 2; drug dose required to inhibit logphase growing cells by 50%; read-out: TC50 Growing THP-1
Protocol: Cytotoxicity Analysis. The cytotoxicity of the compounds were assayed using the CellTiter 96™ Aqueous Non-Radioactive Cell Proliferation (MTS) Assay kit obtained from Promega (Madison, Wis.) following the instructions provided by the supplier. The viable cell number was determined by trypan blue staining and cells (THP-1) were resuspended in PRMI supplemented with 10% FBS (GIBCO). Eighty microliters of cell suspension (1.7×10^4cells/well) was dispensed onto a 96-well microtiter plates. At this time 20 μL of drug (or control) was added to appropriate wells. Each concentration was assayed in quadruplicate. The plates were incubated at 37° C. in a humidified 5% CO2 atmosphere for 4 days and MTS assay […] for each concentration and the data obtained was used to calculate TC50 (the concentration of the compound necessary to inhibit the cell growth by 50%) for each compound.

[11] = tested on: HCMV; conditions: cited from earlier work

## Nc1ncnc2pcn(COCCO)c12 (stereo not drawn) [T70268, 7-Amino-1-[(2-hydroxyethoxy)methyl]-1,3-azaphospholo-[4,5-d]pyrimidine]
[1]
  IC50: > 50 µg/mL
[2]
  IC50: > 100 µg/mL
[3]
  CC50 at 96 h: > 50 µg/mL
[4]
  CC50 at 96 h: > 50 µg/mL
[5]
  CC50 at 96 h: > 50 µg/mL
[6]; Table 4
  IC50: > 50 µg/mL
[7]
  CC50 at 96 h: > 50 µg/mL
[8]
  IC50: > 100 µg/mL
[9]; Table 4
  IC50: > 50 µg/mL

## Nc1ncnc2pcn(COC(CO)CO)c12 (stereo not drawn) [T70269, 7-Amino-1-[(1,3-dihydroxy-2-propoxy)methyl]-1,3-azaphospholo [4,5-d]pyrimidine]
[1]
  IC50: 26.1 µg/mL (≈ 102 µM)
[2]
  IC50: > 100 µg/mL
[3]
  CC50 at 96 h: 41.4 µg/mL (≈ 162 µM)
[4]
  CC50 at 96 h: > 50 µg/mL
[5]
  CC50 at 96 h: > 50 µg/mL
[6]
  IC50: 27.8 µg/mL (≈ 108 µM)
[7]
  CC50 at 96 h: > 50 µg/mL
[8]
  IC50: > 100 µg/mL
[9]
  IC50: 2.75 µg/mL (≈ 10.7 µM)

## Nc1ncnc2pcn([C@@H]3O[C@H](CO)[C@@H](O)[C@H]3O)c12 (stereo partly drawn) [T70264, 7-Amino-1-(β-D-ribofuranosyl)-1,3-azaphospholo-[4,5-d]pyrimidine]
[2]
  IC50: > 100 µg/mL
[10]
  CC50 at 96 h: 118 µg/mL (≈ 413 µM)
[8]
  IC50: 126 µg/mL (≈ 444 µM)

## N#Cc1cn([C@@H]2O[C@H](CO)[C@@H](O)[C@@H]2O)c2ncnc(N)c12 [ara-toyocamycin]
[11]
  activity against HCMV: selective activity against HCMV

## O=c1[nH]c(=O)c2[nH]cpc2[nH]1 (stereo not drawn) [T70270, 1,3-Azaphospholo[4,5-d]pyrimidine-5,7(1H, 4H,6H) -dione]
[2]
  IC50: > 250 µg/mL
[8]
  IC50: 239 µg/mL (≈ 1410 µM)

## Cn1c(=O)n(CCCCC(C)(C)O)c(=O)c2nc[nH]c21 [HWA-3138, reference compound]
[2]; 10-250 μg/mL, THP-1 (FIG. 6)
  inhibition of IL-1β production: does not inhibit IL-1β production
[2]
  IC50: > 500 µg/mL
[10]
  CC50 at 96 h: 316 µg/mL (≈ 1130 µM)
[8]; 10 and 100 μg/mL, THP-1, 6 h post-stimulation (FIG. 2)
  inhibition of TNFα production: no inhibition
[8]
  IC50: 255 µg/mL (≈ 908 µM)

## Cn1c(=O)c2c(pcn2C)n(C)c1=O (stereo not drawn) [T70271, 1,4,6-Trimethyl-1,3-azaphospholo[4,5-d]pyrimidine-5,7-dione]
[2]
  IC50: > 250 µg/mL
[8]
  IC50: 37.3 µg/mL (≈ 177 µM)

## Nc1ncnc2nc[nH]c12 [Adenine, reference compound]
[2]
  IC50: > 250 µg/mL
[8]
  IC50: > 250 µg/mL
